Reference: patent publication US20100160454A1, “ANTIMICROBIAL AGENTS, COMPOSITIONS AND PRODUCTS CONTAINING THE SAME, AND METHODS OF USING THE COMPOSITIONS AND PRODUCTS” (Eastman Chemical Company, priority 2008, published 2010)

How the values were obtained:
Experiment in all cases: Microbiological challenge testing in BPW broth, graded subculture counts
Assay type in all cases: cell-based
[1] = test system: Staphylococcus epidermidis ATCC 12228
In short: (§1)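 Challenge substrates of BPW plus 1% dextrose containing the test material (w/v) or broth alone were inoculated to 10^5–10^6 CFU/mL. Bacteria had been precultured in dextrose TSB at 35 °C for at least 96 h. CFU/mL came from plate count × dilution factor on PCA after ≥48 h at 35 °C.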

[2] = test system: Staphylococcus aureus ATCC 25923; details: S. aureus
In short: as §1

[3] = test system: Pseudomonas aeruginosa Wild type; details: P. aeruginosa
In short: as §1

[4] = test system: Burkholderia cepacia Wild type; details: B. cepacia
In short: as §1

[5] = test system: Escherichia coli ATCC 25922; details: E. Coli
In short: as §1

[6] = test system: Streptococcus mutans ATCC 35668
In short: as §1

Aeromonas sp. Wild type = test system: Aeromonas sp. Wild type
In short: as §1

OCC1CCC(CO)CC1 (stereo not drawn) [1,4-CHDM, 1,4-cyclohexanedimethanol]
S. epidermidis growth grade, 3 day ([1]; 0.5% weight/volume): 4 (1000 to 10,000 colonies countable (thus 10,000 CFU/mL to 100,000 CFU/mL))
S. epidermidis growth grade, 13 day ([1]; 0.5% weight/volume): 4 (1000 to 10,000 colonies countable (thus 10,000 CFU/mL to 100,000 CFU/mL))
S. epidermidis growth grade, 30 day ([1]; 0.5% weight/volume): 4 (1000 to 10,000 colonies countable (thus 10,000 CFU/mL to 100,000 CFU/mL))
S. epidermidis growth grade, 3 day ([1]; 1.25% weight/volume): 2 (52 to 100 colonies counted (thus 520 to 1000 CFU/mL))
S. epidermidis growth grade, 13 day ([1]; 1.25% weight/volume): 0.7
S. epidermidis growth grade, 30 day ([1]; 1.25% weight/volume): 2 (52 to 100 colonies counted (thus 520 to 1000 CFU/mL))
S. epidermidis growth grade, 3 day ([1]; 2.5% weight/volume): 0.7
S. epidermidis growth grade, 13 day ([1]; 2.5% weight/volume): 0
S. epidermidis growth grade, 30 day ([1]; 2.5% weight/volume): 0
S. epidermidis growth grade, 3 day ([1]; 5.0% weight/volume): 0
S. epidermidis growth grade, 13 day ([1]; 5.0% weight/volume): 0
S. epidermidis growth grade, 30 day ([1]; 5.0% weight/volume): 0
Grade ([2]; 0.5% (wt/vol), 3 day): 4 (1000 to 10,000 colonies countable (thus 10,000 CFU/mL to 100,000 CFU/mL))
Grade ([2]; 0.5% (wt/vol), 14 day): 4 (1000 to 10,000 colonies countable (thus 10,000 CFU/mL to 100,000 CFU/mL))
Grade ([2]; 0.5% (wt/vol), 30 day): 4 (1000 to 10,000 colonies countable (thus 10,000 CFU/mL to 100,000 CFU/mL))
Grade ([2]; 1.25% (wt/vol), 3 day): 3 (100 to 1000 colonies (thus 1000 to 10,000 CFU/mL))
Grade ([2]; 1.25% (wt/vol), 14 day): 2.7
Grade ([2]; 1.25% (wt/vol), 30 day): 4 (1000 to 10,000 colonies countable (thus 10,000 CFU/mL to 100,000 CFU/mL))
Grade ([2]; 2.5% (wt/vol), 3 day): 1.7
Grade ([2]; 2.5% (wt/vol), 14 day): 1 (0 to 51 colonies counted (thus 10 to 510 CFU/mL based on 0.1-mL sample))
Grade ([2]; 2.5% (wt/vol), 30 day): 0
Grade ([2]; 5.0% (wt/vol), 3 day): 0
Grade ([2]; 5.0% (wt/vol), 14 day): 0
Grade ([2]; 5.0% (wt/vol), 30 day): 0
Grade ([3]; 0.5% (wt/vol), 3 day): 4 (1000 to 10,000 colonies countable (thus 10,000 CFU/mL to 100,000 CFU/mL))
Grade ([3]; 0.5% (wt/vol), 13 day): 4 (1000 to 10,000 colonies countable (thus 10,000 CFU/mL to 100,000 CFU/mL))
Grade ([3]; 0.5% (wt/vol), 30 day): 4 (1000 to 10,000 colonies countable (thus 10,000 CFU/mL to 100,000 CFU/mL))
Grade ([3]; 1.25% (wt/vol), 3 day): 4 (1000 to 10,000 colonies countable (thus 10,000 CFU/mL to 100,000 CFU/mL))
Grade ([3]; 1.25% (wt/vol), 13 day): 3 (100 to 1000 colonies (thus 1000 to 10,000 CFU/mL))
Grade ([3]; 1.25% (wt/vol), 30 day): 4 (1000 to 10,000 colonies countable (thus 10,000 CFU/mL to 100,000 CFU/mL))
Grade ([3]; 2.5% (wt/vol), 3 day): 3 (100 to 1000 colonies (thus 1000 to 10,000 CFU/mL))
Grade ([3]; 2.5% (wt/vol), 13 day): 2 (52 to 100 colonies counted (thus 520 to 1000 CFU/mL))
Grade ([3]; 2.5% (wt/vol), 30 day): 0
Grade ([3]; 5.0% (wt/vol), 3 day): 0
Grade ([3]; 5.0% (wt/vol), 13 day): 0
Grade ([3]; 5.0% (wt/vol), 30 day): 0
Grade ([4]; 0.5% (wt/vol), 3 day): 4 (1000 to 10,000 colonies countable (thus 10,000 CFU/mL to 100,000 CFU/mL))
Grade ([4]; 0.5% (wt/vol), 14 day): 4 (1000 to 10,000 colonies countable (thus 10,000 CFU/mL to 100,000 CFU/mL))
Grade ([4]; 0.5% (wt/vol), 30 day): 4 (1000 to 10,000 colonies countable (thus 10,000 CFU/mL to 100,000 CFU/mL))
Grade ([4]; 1.25% (wt/vol), 3 day): 4 (1000 to 10,000 colonies countable (thus 10,000 CFU/mL to 100,000 CFU/mL))
Grade ([4]; 1.25% (wt/vol), 14 day): 2 (52 to 100 colonies counted (thus 520 to 1000 CFU/mL))
Grade ([4]; 1.25% (wt/vol), 30 day): 4 (1000 to 10,000 colonies countable (thus 10,000 CFU/mL to 100,000 CFU/mL))
Grade ([4]; 2.5% (wt/vol), 3 day): 0
Grade ([4]; 2.5% (wt/vol), 14 day): 0
Grade ([4]; 2.5% (wt/vol), 30 day): 0
Grade ([4]; 5.0% (wt/vol), 3 day): 0
Grade ([4]; 5.0% (wt/vol), 14 day): 0
Grade ([4]; 5.0% (wt/vol), 30 day): 0
Grade ([5]; 0.5% (wt/vol), 3 day): 5 (More than 10,000 colonies estimated (thus more than 100,000 CFU/mL))
Grade ([5]; 0.5% (wt/vol), 14 day): 4 (1000 to 10,000 colonies countable (thus 10,000 CFU/mL to 100,000 CFU/mL))
Grade ([5]; 0.5% (wt/vol), 30 day): 4 (1000 to 10,000 colonies countable (thus 10,000 CFU/mL to 100,000 CFU/mL))
Grade ([5]; 1.25% (wt/vol), 3 day): 4 (1000 to 10,000 colonies countable (thus 10,000 CFU/mL to 100,000 CFU/mL))
Grade ([5]; 1.25% (wt/vol), 14 day): 4 (1000 to 10,000 colonies countable (thus 10,000 CFU/mL to 100,000 CFU/mL))
Grade ([5]; 1.25% (wt/vol), 30 day): 4 (1000 to 10,000 colonies countable (thus 10,000 CFU/mL to 100,000 CFU/mL))
Grade ([5]; 2.5% (wt/vol), 3 day): 3 (100 to 1000 colonies (thus 1000 to 10,000 CFU/mL))
Grade ([5]; 2.5% (wt/vol), 14 day): 2 (52 to 100 colonies counted (thus 520 to 1000 CFU/mL))
Grade ([5]; 2.5% (wt/vol), 30 day): 0
Grade ([5]; 5.0% (wt/vol), 3 day): 0
Grade ([5]; 5.0% (wt/vol), 14 day): 0
Grade ([5]; 5.0% (wt/vol), 30 day): 0
S. mutans growth grade, 3 day ([6]; 0.5% weight/volume): 4 (1000 to 10,000 colonies countable (thus 10,000 CFU/mL to 100,000 CFU/mL))
S. mutans growth grade, 13 day ([6]; 0.5% weight/volume): 4 (1000 to 10,000 colonies countable (thus 10,000 CFU/mL to 100,000 CFU/mL))
S. mutans growth grade, 30 day ([6]; 0.5% weight/volume): 4 (1000 to 10,000 colonies countable (thus 10,000 CFU/mL to 100,000 CFU/mL))
S. mutans growth grade, 3 day ([6]; 1.25% weight/volume): 4 (1000 to 10,000 colonies countable (thus 10,000 CFU/mL to 100,000 CFU/mL))
S. mutans growth grade, 13 day ([6]; 1.25% weight/volume): 2 (52 to 100 colonies counted (thus 520 to 1000 CFU/mL))
S. mutans growth grade, 30 day ([6]; 1.25% weight/volume): 2 (52 to 100 colonies counted (thus 520 to 1000 CFU/mL))
S. mutans growth grade, 3 day ([6]; 2.5% weight/volume): 2 (52 to 100 colonies counted (thus 520 to 1000 CFU/mL))
S. mutans growth grade, 13 day ([6]; 2.5% weight/volume): 0
S. mutans growth grade, 30 day ([6]; 2.5% weight/volume): 0
S. mutans growth grade, 3 day ([6]; 5.0% weight/volume): 0
S. mutans growth grade, 13 day ([6]; 5.0% weight/volume): 0
S. mutans growth grade, 30 day ([6]; 5.0% weight/volume): 0
Aeromonas sp growth grade, 3 day (Aeromonas sp. Wild type; 0.5% weight/volume): 5 (More than 10,000 colonies estimated (thus more than 100,000 CFU/mL))
Aeromonas sp growth grade, 14 day (Aeromonas sp. Wild type; 0.5% weight/volume): 4 (1000 to 10,000 colonies countable (thus 10,000 CFU/mL to 100,000 CFU/mL))
Aeromonas sp growth grade, 30 day (Aeromonas sp. Wild type; 0.5% weight/volume): 4 (1000 to 10,000 colonies countable (thus 10,000 CFU/mL to 100,000 CFU/mL))
Aeromonas sp growth grade, 3 day (Aeromonas sp. Wild type; 1.25% weight/volume): 4 (1000 to 10,000 colonies countable (thus 10,000 CFU/mL to 100,000 CFU/mL))
Aeromonas sp growth grade, 14 day (Aeromonas sp. Wild type; 1.25% weight/volume): 3 (100 to 1000 colonies (thus 1000 to 10,000 CFU/mL))
Aeromonas sp growth grade, 30 day (Aeromonas sp. Wild type; 1.25% weight/volume): 2 (52 to 100 colonies counted (thus 520 to 1000 CFU/mL))
Aeromonas sp growth grade, 3 day (Aeromonas sp. Wild type; 2.5% weight/volume): 3 (100 to 1000 colonies (thus 1000 to 10,000 CFU/mL))
Aeromonas sp growth grade, 14 day (Aeromonas sp. Wild type; 2.5% weight/volume): 1 (0 to 51 colonies counted (thus 10 to 510 CFU/mL based on 0.1-mL sample))
Aeromonas sp growth grade, 30 day (Aeromonas sp. Wild type; 2.5% weight/volume): 0
Aeromonas sp growth grade, 3 day (Aeromonas sp. Wild type; 5.0% weight/volume): 0
Aeromonas sp growth grade, 14 day (Aeromonas sp. Wild type; 5.0% weight/volume): 0
Aeromonas sp growth grade, 30 day (Aeromonas sp. Wild type; 5.0% weight/volume): 0
